Data as given in ChEMBL document CHEMBL1201862, “PubChem BioAssay data set” (2004).
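Method: 48-hour compound exposure of cells in 96-well plates, five concentrations, linear interpolation of endpoints. GI50: concentration for 50% inhibition of growth.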 The source made the active and inactive calls. No stated cut-off is given here; in the data, active = GI50 up to about 1.1 µM and inactive = higher.

Experiments:
Test in all cases: growth of human tumour cells (NCI), 48 h
RXF 393 = system: RXF 393
IGROV-1 = system: IGROV-1
LOX IMVI = system: LOX IMVI
K562 = system: K562
SK-MEL-5 = system: SK-MEL-5
OVCAR-8 = system: OVCAR-8
HL-60 = system: HL-60
RPMI-8226 = system: RPMI-8226
SF-295 = system: SF-295
786-0 = system: 786-0
NCI-H226 = system: NCI-H226
HCT-116 = system: HCT-116
CCRF-CEM = system: CCRF-CEM
HT-29 = system: HT-29
SK-OV-3 = system: SK-OV-3
A549 = system: A549

SMILES	GI50 (RXF 393)	GI50 (IGROV-1)	GI50 (LOX IMVI)	GI50 (K562)	GI50 (SK-MEL-5)	GI50 (OVCAR-8)	GI50 (HL-60)	GI50 (RPMI-8226)	GI50 (SF-295)	GI50 (786-0)	GI50 (NCI-H226)	GI50 (HCT-116)	GI50 (CCRF-CEM)	GI50 (HT-29)	GI50 (SK-OV-3)	GI50 (A549)
COCCCCCC(=O)CP(=O)(OC)OC	> 100 µM (inactive)	> 100 µM (inactive)	> 100 µM (inactive)	> 100 µM (inactive)	> 100 µM (inactive)	> 100 µM (inactive)	86.3 µM (inactive)	> 100 µM (inactive)	> 100 µM (inactive)	> 100 µM (inactive)	> 100 µM (inactive)	> 100 µM (inactive)	> 100 µM (inactive)	> 100 µM (inactive)	> 100 µM (inactive)	> 100 µM (inactive)
CC(C)=CCC/C(C)=C/CC/C(C)=C/CC/C=C(\C)CC/C=C(\C)CCC1SC1(C)C (configuration not stated)	> 100 µM (inactive)	> 100 µM (inactive)	> 100 µM (inactive)	> 100 µM (inactive)	> 100 µM (inactive)	> 100 µM (inactive)	> 100 µM (inactive)	> 100 µM (inactive)	> 100 µM (inactive)	> 100 µM (inactive)	> 100 µM (inactive)	> 100 µM (inactive)	> 100 µM (inactive)	> 100 µM (inactive)	> 100 µM (inactive)	> 100 µM (inactive)
COc1ccccc1N1C(=O)C2c3[nH]c4ccccc4c3C3CCC(C(C)(C)C)CC3C2C1=O (configuration not stated)	> 100 µM (inactive)	> 100 µM (inactive)		> 100 µM (inactive)	> 100 µM (inactive)	> 100 µM (inactive)	> 100 µM (inactive)	> 100 µM (inactive)	> 100 µM (inactive)	> 100 µM (inactive)	> 100 µM (inactive)	> 100 µM (inactive)	> 100 µM (inactive)	> 100 µM (inactive)	> 100 µM (inactive)	> 100 µM (inactive)
CCCCC1(OC(=O)CCC(=O)O)CCC2(CCC(C)C(C/C=C(C)/C=C/C(O)C(C)/C=C/C(=O)O)O2)OC1CC/C(C)=C/C(=O)O (configuration not stated)	1.75 µM (inactive)	1.47 µM (inactive)	1.66 µM (inactive)	2.8 µM (inactive)	1.61 µM (inactive)	2.84 µM (inactive)	4.57 µM (inactive)	3.15 µM (inactive)	4.57 µM (inactive)	3.52 µM (inactive)	2.14 µM (inactive)	6.19 µM (inactive)	3.94 µM (inactive)	10.3 µM (inactive)	6.17 µM (inactive)	12.2 µM (inactive)
C/C=C1/C=CC2c3[nH]c4ccccc4c3CCN2C1 (configuration not stated)	> 400 µM (inactive)	> 400 µM (inactive)	> 400 µM (inactive)	> 400 µM (inactive)	138 µM (inactive)	> 400 µM (inactive)	> 400 µM (inactive)	> 400 µM (inactive)	315 µM (inactive)	> 400 µM (inactive)	358 µM (inactive)	223 µM (inactive)	> 400 µM (inactive)	> 400 µM (inactive)	> 400 µM (inactive)	> 400 µM (inactive)
COc1cc(CC(=O)c2ccc3c(c2)OCO3)cc(OC)c1OC	62.5 µM (inactive)	> 100 µM (inactive)	> 10 µM (inactive)	93.5 µM (inactive)	> 100 µM (inactive)	> 100 µM (inactive)	> 100 µM (inactive)	44 µM (inactive)	> 100 µM (inactive)	> 100 µM (inactive)	> 100 µM (inactive)	> 100 µM (inactive)	> 100 µM (inactive)	> 100 µM (inactive)	> 100 µM (inactive)	> 100 µM (inactive)
CCN(CC)CC(C(C)=O)C(c1ccccc1)c1c(O)c2ccccc2oc1=O (configuration not stated)	> 100 µM (inactive)	> 100 µM (inactive)	> 100 µM (inactive)	> 100 µM (inactive)	> 100 µM (inactive)	> 100 µM (inactive)	> 100 µM (inactive)	> 100 µM (inactive)	> 100 µM (inactive)	> 100 µM (inactive)	> 100 µM (inactive)	> 100 µM (inactive)	> 100 µM (inactive)	> 100 µM (inactive)	> 100 µM (inactive)	> 100 µM (inactive)
COC(=O)[C@@H]1C(=O)O[C@@H](c2ccc3c(c2)OCO3)[C@@H]1C(=O)OC.COC(=O)[C@H]1C(=O)O[C@@H](c2ccc3c(c2)OCO3)[C@@H]1C(=O)OC	> 100 µM (inactive)	> 100 µM (inactive)	> 100 µM (inactive)	> 100 µM (inactive)	> 100 µM (inactive)	> 100 µM (inactive)	> 100 µM (inactive)	> 100 µM (inactive)	> 100 µM (inactive)	> 100 µM (inactive)	> 100 µM (inactive)	> 100 µM (inactive)	> 100 µM (inactive)	> 100 µM (inactive)	> 100 µM (inactive)	> 100 µM (inactive)
NC(=O)Nc1c([N+](=O)[O-])cc(C(F)(F)F)cc1[N+](=O)[O-]	> 100 µM (inactive)	> 100 µM (inactive)	44.7 µM (inactive)	56.2 µM (inactive)	49.3 µM (inactive)	57.5 µM (inactive)	33.7 µM (inactive)	> 100 µM (inactive)	> 100 µM (inactive)	> 100 µM (inactive)	> 100 µM (inactive)	59.4 µM (inactive)	> 100 µM (inactive)	33.7 µM (inactive)		> 100 µM (inactive)
COc1ccc(NC(=O)CC/C(CC(=O)c2ccco2)=N/Nc2ccc([N+](=O)[O-])cc2[N+](=O)[O-])cc1	75.9 µM (inactive)	> 100 µM (inactive)	39.7 µM (inactive)	32 µM (inactive)	48.4 µM (inactive)	> 100 µM (inactive)	30.1 µM (inactive)	17.1 µM (inactive)	62.1 µM (inactive)	> 100 µM (inactive)	> 100 µM (inactive)	76.2 µM (inactive)	23.7 µM (inactive)	48 µM (inactive)	> 100 µM (inactive)	> 100 µM (inactive)
CN(C)c1ccc(/C=c2\sc3nc4ccccc4n3c2=O)cc1	77.6 µM (inactive)	> 100 µM (inactive)	> 100 µM (inactive)	> 100 µM (inactive)	> 100 µM (inactive)	> 100 µM (inactive)	> 100 µM (inactive)		> 100 µM (inactive)	> 100 µM (inactive)	> 100 µM (inactive)	> 100 µM (inactive)		> 100 µM (inactive)		> 100 µM (inactive)
Cc1c2ccncc2c(C)c2c1[nH]c1ccc(OCC(F)(F)F)cc12	1.9 µM (inactive)	1.61 µM (inactive)	1.61 µM (inactive)	1.08 µM (active)	1.91 µM (inactive)	1.32 µM (inactive)	2.08 µM (inactive)	2.27 µM (inactive)	1.63 µM (inactive)	1.47 µM (inactive)	1.83 µM (inactive)	1.08 µM (active)	1.21 µM (inactive)	1.53 µM (inactive)	1.82 µM (inactive)	1.79 µM (inactive)
